Measurements as given in publication PMC13316043, “Structural basis of NSD2 degradation via targeted recruitment of SCF-FBXO22” (Nature Communications, 2026).

Target: T1, NSD2 (Homo sapiens, UniProt O96028)
T1 construct: endogenous in cells; host or cells: U2OS (ATCC)
T1 sequence (O96028 1-1365): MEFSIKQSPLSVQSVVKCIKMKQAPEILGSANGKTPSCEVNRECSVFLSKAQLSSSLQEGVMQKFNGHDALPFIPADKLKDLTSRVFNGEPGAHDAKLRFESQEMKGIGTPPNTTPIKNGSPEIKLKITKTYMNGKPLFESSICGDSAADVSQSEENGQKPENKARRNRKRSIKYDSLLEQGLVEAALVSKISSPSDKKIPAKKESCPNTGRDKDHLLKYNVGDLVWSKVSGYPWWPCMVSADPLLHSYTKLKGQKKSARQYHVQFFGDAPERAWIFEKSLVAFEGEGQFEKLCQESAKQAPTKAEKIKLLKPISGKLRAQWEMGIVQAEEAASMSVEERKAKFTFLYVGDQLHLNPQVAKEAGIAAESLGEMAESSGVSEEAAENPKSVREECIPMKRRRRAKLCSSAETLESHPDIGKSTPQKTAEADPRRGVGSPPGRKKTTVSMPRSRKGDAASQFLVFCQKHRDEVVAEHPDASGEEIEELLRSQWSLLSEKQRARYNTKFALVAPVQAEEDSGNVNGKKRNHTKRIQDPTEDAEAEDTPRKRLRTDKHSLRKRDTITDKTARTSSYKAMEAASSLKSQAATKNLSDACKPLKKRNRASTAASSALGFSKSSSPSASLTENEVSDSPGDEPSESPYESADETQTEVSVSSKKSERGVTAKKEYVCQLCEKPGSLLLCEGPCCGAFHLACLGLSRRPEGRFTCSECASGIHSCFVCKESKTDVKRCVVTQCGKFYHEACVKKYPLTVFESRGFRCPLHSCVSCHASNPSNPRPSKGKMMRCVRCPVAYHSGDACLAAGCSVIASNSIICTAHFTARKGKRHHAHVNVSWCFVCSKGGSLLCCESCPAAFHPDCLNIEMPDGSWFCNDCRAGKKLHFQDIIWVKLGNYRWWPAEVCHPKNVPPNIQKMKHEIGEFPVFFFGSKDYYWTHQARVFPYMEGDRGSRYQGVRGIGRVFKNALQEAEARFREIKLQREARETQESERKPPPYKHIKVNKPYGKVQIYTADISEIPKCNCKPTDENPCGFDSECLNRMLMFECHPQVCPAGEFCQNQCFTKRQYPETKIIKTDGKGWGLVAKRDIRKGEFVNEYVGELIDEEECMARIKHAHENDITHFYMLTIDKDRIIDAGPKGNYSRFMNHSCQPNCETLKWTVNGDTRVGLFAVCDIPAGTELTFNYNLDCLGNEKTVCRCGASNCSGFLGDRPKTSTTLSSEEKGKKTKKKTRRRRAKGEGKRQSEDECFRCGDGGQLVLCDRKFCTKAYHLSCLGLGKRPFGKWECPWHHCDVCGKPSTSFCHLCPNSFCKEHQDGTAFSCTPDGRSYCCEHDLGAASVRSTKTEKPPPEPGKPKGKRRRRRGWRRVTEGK
Test: Western blot of NSD2 in U2OS cells
Type: cell-based
Conditions: 300 nM, 6 h
Experimental: HEK293T and U2OS were obtained from ATCC and cultured in high-glucose-containing Dulbecco’s Modified Eagle’s Medium (DMEM; Gibco; cat. #11995) supplemented with 10% fetal bovine serum (VWR) and 1% penicillin/streptomycin (Gibco). Cells were treated with either UNC10415667, UNC12149, UNC12567, hemin (Sigma; cat. #H9039), or DMSO control for the indicated times and analyzed by western blot using standard procedures. Briefly, cells were lysed on ice for 15 min in NETN lysis buffer (20 mM Tris pH 8.0, 100 mM NaCl, 0.5 mM EDTA, 0.5% NP40) supplemented with 10 µg/mL aprotinin, 10 µg/mL leupeptin, 10 µg/mL pepstatin A, 1 mM sodium orthovanadate, 1 mM sodium fluoride, and 1 mM AEBSF (4-[two aminoethyl] benzenesulfonyl fluoride). Cell lysates were centrifuged at 20,000×g in a benchtop microcentrifuge at 4 °C for 10 min. Protein concentration was determined by Bradford assay (Bio-Rad; cat. #5000006). Protein concentration was normalized using Laemmli buffer. Samples were heated for 5 min at 95°C in a dry water-bath. Samples were separated on TGX stain free gels (Bio-Rad) transferred to nitrocellulose membrane and blocked in 5% non-fat dry milk (Biorad; cat. #1706404) diluted in 1x TBS-T (137 mM NaCl, 2.7 mM KCl, 25 mM Tris pH 7.6, 1% Tween-20). […]

- NSD2 level by western blot: undetectable
SMILES: Cc1cc(C=O)ccc1C(=O)N1CCc2cc(NC(=O)c3ccc(CN(C(=O)c4ccc5c(c4)OCC(=O)N5)C4CC4)cc3)ccc2C1 [UNC12149]
